Common to all, as to experiment: relative viability (nuclei count vs DMSO), 5 days (fraction); higher = more cells survive
Compound in the experiment “Metformin + Crizotinib”: CN(C)C(=N)NC(=N)N [Metformin] + C[C@@H](Oc1cc(-c2cnn(C3CCNCC3)c2)cnc1N)c1c(Cl)ccc(F)c1Cl [Crizotinib] (partner 1 µM)
A digest of the protocol:
(§1)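 Lung cancer cell lines in 1536-well plates were dosed by pin tool the day after seeding, either with one drug alone or with a fixed anchor-drug dose plus five library-drug doses (not always all listed) in √10 steps. After 5 days, cells were fixed and their nuclei stained in one step (final 0.05% Triton X-100, 1% formaldehyde, 1 ug/ml Hoechst), then counted on 4× images. Relative viability is the nuclei count in treated wells divided by that in vehicle wells. Values are medians of duplicate plates.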

Compound in the experiment “Metformin + Dasatinib”: CN(C)C(=N)NC(=N)N [Metformin] + Cc1nc(Nc2ncc(C(=O)Nc3c(C)cccc3Cl)s2)cc(N2CCN(CCO)CC2)n1 [Dasatinib] (partner 0.075 µM)
Put shortly: as §1

Compound in the experiment “Metformin + AZD7762”: CN(C)C(=N)NC(=N)N [Metformin] + NC(=O)Nc1cc(-c2cccc(F)c2)sc1C(=O)N[C@H]1CCCNC1 [AZD7762] (partner 0.2 µM)
A digest of the protocol:
as §1

Compound in the experiment “Apatinib + Navitoclax”: N#CC1(c2ccc(NC(=O)c3cccnc3NCc3ccncc3)cc2)CCCC1 [Apatinib] + CC1(C)CCC(c2ccc(Cl)cc2)=C(CN2CCN(c3ccc(C(=O)NS(=O)(=O)c4ccc(N[C@H](CCN5CCOCC5)CSc5ccccc5)c(S(=O)(=O)C(F)(F)F)c4)cc3)CC2)C1 [Navitoclax] (partner 0.5 µM)
A digest of the protocol: as §1

On to NCI-H460, for which the relative viability in the experiment with Metformin + Crizotinib (first compound 31.62 µM) came to 0.734; in the experiment with Metformin + Crizotinib (first compound 100 µM), 0.778; with Metformin + Crizotinib (first compound 316.23 µM), 0.829; in the experiment with Metformin + Crizotinib (first compound 1000 µM), 0.916; with Metformin + Dasatinib (first compound 10 µM), 0.402; with Metformin + Dasatinib (first compound 31.62 µM), 0.546. Moreover, the relative viability with Metformin + Dasatinib (first compound 100 µM) is 0.353; in the experiment with Metformin + Dasatinib (first compound 316.23 µM) it was 0.43; with Metformin + Dasatinib (first compound 1000 µM), 0.457; in the experiment with Metformin + AZD7762 (first compound 31.62 µM), 0.632; with Metformin + AZD7762 (first compound 100 µM) it was 0.676; with Metformin + AZD7762 (first compound 316.23 µM), 0.433. In addition, the relative viability with Metformin + AZD7762 (first compound 1000 µM) is 0.553; in the experiment with Apatinib + Navitoclax (first compound 0.08 µM), 1.1; with Apatinib + Navitoclax (first compound 0.253 µM), 1.14; in the experiment with Apatinib + Navitoclax (first compound 0.8 µM), 1.03; with Apatinib + Navitoclax (first compound 2.53 µM) it was 1.06; with Apatinib + Navitoclax (first compound 8 µM), 1.05.

The values are drawn from the supplement of paper PMC10307832.
